{"source": "ChEMBL document CHEMBL3638641", "about": "“Disubstituted heteroaryl-fused pyridines” (2014)", "key": {"Orexin receptor type 2": {"target": "T1, Orexin receptor type 2 (Homo sapiens, UniProt O43614)", "T1 sequence (O43614 whole entry)": "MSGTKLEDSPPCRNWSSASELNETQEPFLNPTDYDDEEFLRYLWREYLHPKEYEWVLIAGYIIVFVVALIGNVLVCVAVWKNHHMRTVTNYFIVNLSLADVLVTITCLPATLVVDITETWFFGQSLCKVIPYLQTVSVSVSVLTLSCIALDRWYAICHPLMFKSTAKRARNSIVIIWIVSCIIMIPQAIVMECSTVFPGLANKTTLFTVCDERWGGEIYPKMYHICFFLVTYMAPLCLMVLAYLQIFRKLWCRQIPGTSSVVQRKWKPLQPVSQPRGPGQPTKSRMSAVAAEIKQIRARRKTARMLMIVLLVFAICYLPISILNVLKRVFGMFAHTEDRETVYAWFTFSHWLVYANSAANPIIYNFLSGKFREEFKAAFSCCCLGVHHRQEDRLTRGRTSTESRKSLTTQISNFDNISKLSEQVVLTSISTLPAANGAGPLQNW", "experiment": "(§1) Radioligand Binding Assay I : For crude cell membrane preparations, cells (CHO, Chinese hamster ovary or HEK, human embryonic kidney) expressing human orexin 1 or human orexin 2 receptors, were washed with HEPES (10 mM, pH 7.5), scraped off the culture plates with the same buffer, and centrifuged at 4 C for 5 min at 2500 x g. The cell pellet was either stored at -80 C or used directly. Before the experiments, cell membranes were re-suspended in binding assay buffer (10 mM HEPES, 0.5% (w/v) bovine serum albumin, pH 7.5) by homogenisation with a Polytron homogeniser at 50 Hz for 20 s. In competition experiments, cell homogenates (150μΙ) were incubated in assay buffer (10 mM HEPES, pH 7.5, 0.5 % (w/v) bovine serum albumin, 5 mM MgCI2, 1 mMCaCI2, and tween 0.05%) for 1 h at room temperature with about 100 pM of the radioligand ([125l]orexin A, 2100 Ci/mmole, 50 μΙ), and with various concentrations of compounds of the invention (50 μΙ) in triplicates."}, "[1]": {"target": "T2, Orexin/Hypocretin receptor type 1 (Homo sapiens, UniProt O43613)", "T2 sequence (O43613 whole entry)": "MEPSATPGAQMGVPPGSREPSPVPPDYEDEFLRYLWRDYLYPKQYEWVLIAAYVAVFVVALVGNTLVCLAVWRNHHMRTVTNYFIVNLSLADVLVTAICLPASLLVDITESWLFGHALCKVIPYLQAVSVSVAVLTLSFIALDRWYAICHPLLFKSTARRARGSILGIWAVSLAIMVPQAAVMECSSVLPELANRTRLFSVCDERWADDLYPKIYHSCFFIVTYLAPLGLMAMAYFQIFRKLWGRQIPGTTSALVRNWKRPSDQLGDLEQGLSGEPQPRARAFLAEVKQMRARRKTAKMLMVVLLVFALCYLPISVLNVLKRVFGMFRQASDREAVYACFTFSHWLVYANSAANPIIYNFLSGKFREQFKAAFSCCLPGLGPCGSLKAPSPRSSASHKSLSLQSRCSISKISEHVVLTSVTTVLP", "experiment": "as §1"}}, "data": [{"smiles": "C[C@H](NC(=O)COc1cc(C(F)(F)F)c2c(-c3cccc(Cl)c3)nn(C)c2n1)c1ccccc1", "values": [{"measurement": "Kd", "setting": "Orexin receptor type 2", "value": 477, "unit": "nM"}, {"measurement": "Kd", "setting": "[1]", "value": 114, "unit": "nM"}]}]}
